According to ChEMBL document CHEMBL1201862, “PubChem BioAssay data set” (2004):
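1) Cells in 96-well plates. 2) Compound, 48 h, 5 concentrations. 3) Linear interpolation between surrounding doses. 4) Unreached endpoint = highest concentration. The concentration for 50% growth inhibition is given as GI50.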 Calls of active or inactive are those of the source. Rule as the data show it: active = GI50 up to about 1.1 µM and inactive = higher.

Assays:
Experiment in all cases: NCI tumour cell line growth inhibition, 48 h
PC-3 = tested on: PC-3
NCI-H226 = tested on: NCI-H226
UACC-257 = tested on: UACC-257
SK-MEL-2 = tested on: SK-MEL-2
MDA-N = tested on: MDA-N
HCC 2998 = tested on: HCC 2998
RXF 393 = tested on: RXF 393
KM12 = tested on: KM12
HT-29 = tested on: HT-29
SNB-75 = tested on: SNB-75
Hs-578T = tested on: Hs-578T
NCI-H460 = tested on: NCI-H460
DU-145 = tested on: DU-145
SK-MEL-5 = tested on: SK-MEL-5
OVCAR-8 = tested on: OVCAR-8
NCI-H522 = tested on: NCI-H522
MOLT-4 = tested on: MOLT-4
TK-10 = tested on: TK-10
786-0 = tested on: 786-0
UACC-62 = tested on: UACC-62

| SMILES | GI50 (PC-3) | GI50 (NCI-H226) | GI50 (UACC-257) | GI50 (SK-MEL-2) | GI50 (MDA-N) | GI50 (HCC 2998) | GI50 (RXF 393) | GI50 (KM12) | GI50 (HT-29) | GI50 (SNB-75) | GI50 (Hs-578T) | GI50 (NCI-H460) | GI50 (DU-145) | GI50 (SK-MEL-5) | GI50 (OVCAR-8) | GI50 (NCI-H522) | GI50 (MOLT-4) | GI50 (TK-10) | GI50 (786-0) | GI50 (UACC-62) |
| --- | --- | --- | --- | --- | --- | --- | --- | --- | --- | --- | --- | --- | --- | --- | --- | --- | --- | --- | --- | --- |
| Cc1ccccc1C(=O)NC(O)(C(F)(F)F)C(F)(F)F | 25.5 µM (inactive) | > 100 µM (inactive) | 61.9 µM (inactive) | 56.1 µM (inactive) | > 100 µM (inactive) | > 100 µM (inactive) | > 100 µM (inactive) | 42.5 µM (inactive) | 91.2 µM (inactive) | 0.0302 µM (active) | 22.5 µM (inactive) | 84.9 µM (inactive) | > 100 µM (inactive) | 94 µM (inactive) | > 100 µM (inactive) | 47 µM (inactive) | 35.9 µM (inactive) | > 100 µM (inactive) | > 100 µM (inactive) |  |
| C=C1C(=O)OC2/C=C(/CO)C3(O)CC(O)C(C)(CC(OC(=O)/C(C)=C/C)C12)O3 (stereo not given) | 26.3 µM (inactive) | 18.5 µM (inactive) | 15.4 µM (inactive) | 22.4 µM (inactive) | 10.2 µM (inactive) | 10.6 µM (inactive) | 2.81 µM (inactive) | 20.5 µM (inactive) | 8.09 µM (inactive) | 39.2 µM (inactive) | 53.5 µM (inactive) | 14.9 µM (inactive) | 18.5 µM (inactive) | 11.1 µM (inactive) | 7.66 µM (inactive) | 2.4 µM (inactive) | 2.47 µM (inactive) | 11.9 µM (inactive) | 10.1 µM (inactive) | 6.62 µM (inactive) |
| CCN(CC(=O)O)CC(=O)O | > 100 µM (inactive) | > 100 µM (inactive) | > 100 µM (inactive) | > 100 µM (inactive) | > 100 µM (inactive) | > 100 µM (inactive) | > 100 µM (inactive) | > 100 µM (inactive) | > 100 µM (inactive) | > 100 µM (inactive) | > 100 µM (inactive) | > 100 µM (inactive) | > 100 µM (inactive) | > 100 µM (inactive) | > 100 µM (inactive) | > 100 µM (inactive) | > 100 µM (inactive) | > 100 µM (inactive) | > 100 µM (inactive) | > 100 µM (inactive) |
| CN1CCN(C(=O)c2cn(Cc3cncn3Cc3ccc4c(c3)OCO4)cc2-c2cccc3ccccc23)CC1 | 15.6 µM (inactive) | 58.1 µM (inactive) | 14 µM (inactive) | 0.268 µM (active) | 0.378 µM (active) | 10.6 µM (inactive) | 30 µM (inactive) | 0.782 µM (active) | 3.11 µM (inactive) | 14.7 µM (inactive) | 23.2 µM (inactive) | 2.46 µM (inactive) | 37.4 µM (inactive) | 9.04 µM (inactive) | 31.6 µM (inactive) | 5.86 µM (inactive) | 1.58 µM (inactive) | 29.1 µM (inactive) | 20.9 µM (inactive) | 7.96 µM (inactive) |
| Clc1ccc(-c2nnc(-c3cccc4ccccc34)o2)cc1Cl | > 100 µM (inactive) | > 100 µM (inactive) | > 100 µM (inactive) | > 100 µM (inactive) | > 100 µM (inactive) | > 100 µM (inactive) | > 100 µM (inactive) | > 100 µM (inactive) | > 100 µM (inactive) | > 100 µM (inactive) | > 100 µM (inactive) | > 100 µM (inactive) | > 100 µM (inactive) | > 100 µM (inactive) | > 100 µM (inactive) | > 100 µM (inactive) | 59.7 µM (inactive) | > 100 µM (inactive) | > 100 µM (inactive) | > 100 µM (inactive) |
| CCCCn1c(O)nc2c(N)ncnc21 | > 100 µM (inactive) | > 100 µM (inactive) | > 100 µM (inactive) | > 100 µM (inactive) | > 100 µM (inactive) | > 100 µM (inactive) | > 100 µM (inactive) |  | > 100 µM (inactive) | > 100 µM (inactive) | > 100 µM (inactive) | > 100 µM (inactive) | > 100 µM (inactive) | > 100 µM (inactive) | > 100 µM (inactive) | > 100 µM (inactive) |  | > 100 µM (inactive) | > 100 µM (inactive) | > 100 µM (inactive) |
| CN(C)CCNc1nc2c(no[n+]2[O-])c2ccccc12.[O-][Cl+3]([O-])([O-])O | 28 µM (inactive) | 16.1 µM (inactive) | 16.8 µM (inactive) | 19.4 µM (inactive) | 28.9 µM (inactive) | 28.2 µM (inactive) | 17.5 µM (inactive) | 21.1 µM (inactive) | 27.6 µM (inactive) | 23.7 µM (inactive) | 40.6 µM (inactive) | 19.5 µM (inactive) | 6.19 µM (inactive) | 15.2 µM (inactive) | 14.6 µM (inactive) | 24.4 µM (inactive) | 32.4 µM (inactive) | 24.9 µM (inactive) | 18.7 µM (inactive) | 21 µM (inactive) |
| Cn1c2c(c3ccccc31)CCN1OCC=C[C@@H](C(=O)O)[C@@H]21 | > 100 µM (inactive) | > 100 µM (inactive) | > 100 µM (inactive) | > 100 µM (inactive) | > 100 µM (inactive) | > 100 µM (inactive) | > 100 µM (inactive) | > 100 µM (inactive) | > 100 µM (inactive) | 82 µM (inactive) | 31 µM (inactive) | > 100 µM (inactive) | > 100 µM (inactive) | > 100 µM (inactive) | > 100 µM (inactive) | > 100 µM (inactive) |  | > 100 µM (inactive) | > 100 µM (inactive) | > 100 µM (inactive) |
| COc1ccc(OCC(=N/NC(=O)c2ccncc2)/N=C/c2ccncc2)cc1 | > 100 µM (inactive) | 67.5 µM (inactive) | > 100 µM (inactive) | > 100 µM (inactive) | 17.6 µM (inactive) | > 100 µM (inactive) | 36.3 µM (inactive) | 60 µM (inactive) | 57 µM (inactive) |  | > 100 µM (inactive) | > 100 µM (inactive) | > 100 µM (inactive) |  | > 100 µM (inactive) | 32.2 µM (inactive) | 90.2 µM (inactive) | > 100 µM (inactive) | > 100 µM (inactive) | 53.6 µM (inactive) |
| CN(/N=C/c1cccs1)c1ccc(Cl)cc1[N+](=O)[O-] | 38.4 µM (inactive) | 19.8 µM (inactive) | 35.6 µM (inactive) |  | 3.84 µM (inactive) | 25.8 µM (inactive) | 23.6 µM (inactive) | 11.4 µM (inactive) | 25.9 µM (inactive) | 30.8 µM (inactive) | 25.4 µM (inactive) | 23.3 µM (inactive) | 64.4 µM (inactive) | 36.9 µM (inactive) | 40.5 µM (inactive) | 22.6 µM (inactive) | 17.1 µM (inactive) | 35.2 µM (inactive) | 59.6 µM (inactive) | 47 µM (inactive) |
| O=C1CCCCCCCCCCC1CN(Cc1ccccc1)Cc1ccccc1 (stereo not given) | 30.9 µM (inactive) | 51.3 µM (inactive) | 32.2 µM (inactive) |  | 40.1 µM (inactive) | 28.8 µM (inactive) | 15.4 µM (inactive) | 83.9 µM (inactive) |  | 2.84 µM (inactive) | 22.4 µM (inactive) |  | 59 µM (inactive) | 13.1 µM (inactive) | 75.3 µM (inactive) | 41.3 µM (inactive) | 17.3 µM (inactive) | > 100 µM (inactive) | 42.6 µM (inactive) | 13.7 µM (inactive) |
| Cc1cc(C(C)(C)C)cc(CNC2CCCCC2)c1O | 16.5 µM (inactive) |  | 14.9 µM (inactive) | 17.7 µM (inactive) | 16.3 µM (inactive) | 3 µM (inactive) | < 0.01 µM (active) | 19.9 µM (inactive) | 17.3 µM (inactive) | 12.2 µM (inactive) | 20.2 µM (inactive) | 14.8 µM (inactive) | 21.3 µM (inactive) | 17 µM (inactive) | 17.3 µM (inactive) | 12.6 µM (inactive) | 31.3 µM (inactive) | 16.1 µM (inactive) | 16.2 µM (inactive) | 16 µM (inactive) |
| O=[N+]([O-])C(=C(Nc1ccccc1)Nc1ccccc1)/C(Cl)=C(\Cl)[N+](=O)[O-] | 5.65 µM (inactive) | 12.7 µM (inactive) | 5.97 µM (inactive) | 9.84 µM (inactive) | 2.77 µM (inactive) | 12.2 µM (inactive) | 1.89 µM (inactive) | 3.98 µM (inactive) | 3.27 µM (inactive) | 7.57 µM (inactive) | 2.74 µM (inactive) | 14.7 µM (inactive) | 2.65 µM (inactive) | 2.02 µM (inactive) | 1.44 µM (inactive) |  | 2.43 µM (inactive) | 5.16 µM (inactive) | 3.15 µM (inactive) | 4.58 µM (inactive) |
| NC1CCCCC1.O=C(CP(=O)(O)O)NC(CC(=O)OCc1ccccc1)C(=O)OCc1ccccc1 (stereo not given) | 24.2 µM (inactive) | > 100 µM (inactive) | > 100 µM (inactive) | 4.85 µM (inactive) | > 100 µM (inactive) | > 100 µM (inactive) | > 100 µM (inactive) |  | > 100 µM (inactive) | 4.1 µM (inactive) | > 100 µM (inactive) | > 100 µM (inactive) | > 100 µM (inactive) | > 100 µM (inactive) | > 100 µM (inactive) | > 100 µM (inactive) | > 100 µM (inactive) |  | > 100 µM (inactive) | > 100 µM (inactive) |
| CCCC1C(C#N)(C#N)C(C#N)=C(N)C1(C)C(C)=O (stereo not given) | > 100 µM (inactive) | 43.7 µM (inactive) | 86.9 µM (inactive) | > 100 µM (inactive) | 42.7 µM (inactive) | > 100 µM (inactive) | 71 µM (inactive) | > 100 µM (inactive) | > 100 µM (inactive) | 4.42 µM (inactive) | > 100 µM (inactive) |  | > 100 µM (inactive) | 65.2 µM (inactive) | > 100 µM (inactive) | 52.8 µM (inactive) | > 100 µM (inactive) | > 100 µM (inactive) | 53.3 µM (inactive) | > 100 µM (inactive) |
